# ChEMBL document CHEMBL1201862, “PubChem BioAssay data set” (2004)
#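 Grown in 96-well plates, cells were treated for 48 hours with each compound at five concentrations. Insufficient inhibition: endpoint recorded as highest concentration tested. GI50 = concentration required for 50% inhibition of growth.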 Calls of active or inactive are those of the source. No stated cut-off is given here; in the data, active = GI50 up to about 1.1 µM and inactive = higher.
# Legend:
# Assay in all cases: NCI tumour cell line growth inhibition, 48 h
# [1] = test system: 786-0
# [2] = test system: HOP-62
# [3] = test system: HOP-92
# [4] = test system: HT-29
# [5] = test system: Hs-578T
# [6] = test system: KM12
# [7] = test system: MOLT-4
# [8] = test system: NCI-H460
# [9] = test system: OVCAR-8
# [10] = test system: RXF 393
# [11] = test system: SN12C
# [12] = test system: SNB-19
# [13] = test system: SNB-75
# [14] = test system: SR
# [15] = test system: SW-620
# [16] = test system: UACC-257
# [17] = test system: UO-31
# [18] = test system: HL-60
# [19] = test system: NCI-H522
# [20] = test system: SK-OV-3
SMILES,GI50 [1],GI50 [2],GI50 [3],GI50 [4],GI50 [5],GI50 [6],GI50 [7],GI50 [8],GI50 [9],GI50 [10],GI50 [11],GI50 [12],GI50 [13],GI50 [14],GI50 [15],GI50 [16],GI50 [17],GI50 [18],GI50 [19],GI50 [20]
COC(=O)c1cn(CCCCO)nn1,> 100 µM (inactive),> 100 µM (inactive),> 100 µM (inactive),> 100 µM (inactive),> 100 µM (inactive),> 100 µM (inactive),> 100 µM (inactive),> 100 µM (inactive),> 100 µM (inactive),> 100 µM (inactive),> 100 µM (inactive),> 100 µM (inactive),> 100 µM (inactive),> 100 µM (inactive),> 100 µM (inactive),> 100 µM (inactive),> 100 µM (inactive),–,–,–
O=C(CN1CCCC1=O)CS(=O)(=O)c1ccccc1,> 100 µM (inactive),> 100 µM (inactive),–,> 100 µM (inactive),> 100 µM (inactive),> 100 µM (inactive),> 100 µM (inactive),> 100 µM (inactive),> 100 µM (inactive),> 100 µM (inactive),–,> 100 µM (inactive),> 100 µM (inactive),> 100 µM (inactive),> 100 µM (inactive),> 100 µM (inactive),> 100 µM (inactive),> 100 µM (inactive),> 100 µM (inactive),–
NCCCNc1ccc2c(c1)[n+]([O-])c1ccccc1[n+]2[O-],29.2 µM (inactive),22.7 µM (inactive),12.7 µM (inactive),28.6 µM (inactive),18.5 µM (inactive),25.4 µM (inactive),15.7 µM (inactive),15.7 µM (inactive),31.5 µM (inactive),20.1 µM (inactive),26 µM (inactive),28.3 µM (inactive),–,19.1 µM (inactive),33 µM (inactive),27.2 µM (inactive),35.3 µM (inactive),19.7 µM (inactive),13.6 µM (inactive),14.2 µM (inactive)
COC(=O)C12OC(C)(C(CC(=O)OC(C)(C)C)C1=O)C1C(=O)N(c3ccccc3)C(=O)C12 (configuration not stated),> 100 µM (inactive),> 100 µM (inactive),> 100 µM (inactive),> 100 µM (inactive),> 100 µM (inactive),> 100 µM (inactive),> 100 µM (inactive),> 100 µM (inactive),> 100 µM (inactive),> 100 µM (inactive),> 100 µM (inactive),> 100 µM (inactive),> 100 µM (inactive),> 100 µM (inactive),> 100 µM (inactive),> 100 µM (inactive),> 100 µM (inactive),–,> 100 µM (inactive),> 100 µM (inactive)
C=C1C(=O)C=C[C@]2(C)CC[C@H]3C(=C)C(=O)O[C@@H]3[C@@H]12,0.461 µM (active),2.48 µM (inactive),2.87 µM (inactive),1.56 µM (inactive),4.1 µM (inactive),1.61 µM (inactive),0.52 µM (active),12.1 µM (inactive),1.53 µM (inactive),1.45 µM (inactive),2.96 µM (inactive),14.6 µM (inactive),–,1.79 µM (inactive),0.813 µM (active),2.67 µM (inactive),1.43 µM (inactive),1.9 µM (inactive),0.753 µM (active),8.73 µM (inactive)
O=C1N[C@@H](COc2ccc(/C=N/c3ccc(CCc4ccc(/N=C/c5ccc(OC[C@@H]6COC(=O)N6)cc5)cc4)cc3)cc2)CO1,> 100 µM (inactive),> 100 µM (inactive),–,> 100 µM (inactive),> 100 µM (inactive),> 100 µM (inactive),> 100 µM (inactive),–,> 100 µM (inactive),> 100 µM (inactive),> 100 µM (inactive),> 100 µM (inactive),–,> 100 µM (inactive),> 100 µM (inactive),> 100 µM (inactive),> 100 µM (inactive),> 100 µM (inactive),> 100 µM (inactive),> 100 µM (inactive)
COc1ccc(OC)c(CNc2ccc(C(=O)O)cc2)c1,> 100 µM (inactive),–,> 100 µM (inactive),> 100 µM (inactive),> 100 µM (inactive),> 100 µM (inactive),> 100 µM (inactive),–,> 100 µM (inactive),–,–,> 100 µM (inactive),> 100 µM (inactive),> 100 µM (inactive),> 100 µM (inactive),> 100 µM (inactive),> 100 µM (inactive),> 100 µM (inactive),> 100 µM (inactive),> 100 µM (inactive)
O=c1[nH]c2nccnc2c2c([N+](=O)[O-])cccc12,> 100 µM (inactive),> 100 µM (inactive),–,> 100 µM (inactive),55.5 µM (inactive),> 100 µM (inactive),> 100 µM (inactive),> 100 µM (inactive),> 100 µM (inactive),58.2 µM (inactive),> 100 µM (inactive),> 100 µM (inactive),> 100 µM (inactive),> 100 µM (inactive),> 100 µM (inactive),–,44.1 µM (inactive),> 100 µM (inactive),49.9 µM (inactive),> 100 µM (inactive)
